Where “and” joins values, the source holds several entries; their conditions need not be identical. Identical values can stand only once. One block for each molecule: values may come before it.
Columns and labels:
[1] = 13C T1 measurements in vitro (inversion recovery, 11 T); assay type: physicochemical; conditions: PBS buffer, pH 7.5, containing 4% BSA, n=2
Method: ^13C T1 measurements in vitro: Measurements were made at 11 T (Bruker Avance II^+ 500 MHz spectrometer) using an inversion recovery sequence in samples containing approximately 10 mM [1-^13C] ethanol or 1 M ethanol, 10% D2O and 4% BSA (Sigma Aldrich), buffered with PBS to pH 7.5. A TR of 300 seconds and 16 delays between 1 and 200 seconds were used for measurements with [1-^13C, U-^2H5] ethanol and a TR of 50 seconds and 16 delays between 0.5 and 50 seconds were used for measurements of the natural abundance ^13C signal from 1M ethanol.

[2] = Hyperpolarisation by dynamic nuclear polarization and liquid state polarization measurement; assay type: physicochemical
Method: A 2:3 glycerol: [1-^13C] ethanol mixture, containing 15 mM trityl radical (OX063: tris (8-carboxy-2,2,6,6-tetra-(hydroxyethyl)-benzo-[1,2-4,50]-bis-(1,3)-dithiole-4-yl)-methyl, sodium salt; GE Healthcare, Little Chalfont, UK) and 1.5 mM gadoteric acid (DOTAREM; Guebert, Roissy, France), was polarized for approximately 120 minutes in a 3.35 T Hypersense polarizer (Oxford Instruments, Abingdon, Oxfordshire, UK) using irradiation at 94.124 GHz. The dissolution buffer (PBS, pH 7.5, 100 mg/L EDTA) was heated to 180°C and pressurized to 10 bar before dissolving the frozen polarized samples. The dissolved sample contained 110 mM [1-^13C] ethanol. For measurements of the liquid state polarization a sample of [1-^13C] ethanol was polarized and dissolved as described above. Two mL of the sample, containing approximately 60 mM [1-^13C] ethanol were injected into 2 mL of PBS buffer, pH 7.4 in a 10 mm NMR tube placed inside a vertical bore 9.4 T NMR spectrometer with a broadband probe tuned to ^13C (Varian NMR Instruments, Palo Alto, CA, U.S.). Immediately following injection and approximately 9 seconds after dissolution, 180 single transient spectra, with a nominal pulse flip angle of 6° and 8 kHz spectral width, were acquired with a TR of 1 second. Three 90° pulses were then applied to eliminate the remaining hyperpolarisation. A ^13C spectrum (the sum of 128 transients) was then acquired using a 6° pulse, a spectral width of 8 kHz, and a TR of 300 seconds. The temperature of the sample was kept at 37°C. The liquid state polarization was calculated from the ratio of the maximal integrated intensity of the hyperpolarised [1-^13C] ethanol signal to the integrated intensity of the thermal equilibrium signal corrected for the number of transients.

[3] = Measurement of blood ethanol level (13C MRS on plasma samples); assay type: in vivo, mice; conditions: for ethanol concentration in plasma: plasma withdrawn 75 seconds after start of i.v. injection of 10 µl per g body weight of 110 mM ethanol
Method: Measurement of blood ethanol level: An appropriate volume of [2-^13C] ethanol, polarized and dissolved to the same concentration as [1-^13C] ethanol, was injected into the tail vein of animals that had been anesthetized for 30-45 minutes. Blood was withdrawn by cardiac puncture, which began 75 seconds after the start of ethanol injection and was completed within 30 seconds. Individual blood samples were transferred into separate BD Microtainer FE micro-collection tubes (BD, Franklin Lakes, NJ, US), centrifuged at 800 g and the plasma removed and frozen in liquid nitrogen. For NMR spectroscopy, plasma samples were thawed and diluted in 200 mM PBS in D2O, pH 7.5. The buffer contained 100 mM TMSP (2,2,3,3-D4 sodium-3-trimethylsilylpropionate) as an intensity and chemical shift standard (Cambridge Isotope Laboratories, Inc. Andover MA, US). ^13C spectra (the sum of 1024 transients) were acquired under fully relaxed conditions at 125 MHz (Bruker Avance II^+ 500 MHz spectrometer) into 25,294 data points using a 90° pulse, a sweep width of 5 kHz, and a TR of 35 seconds. Integrated intensities of the 2-^13C ethanol and 2-^13C acetate resonances were normalized to that of TMSP and multiplied by the methyl ^13C concentration in 100 mM TMSP (3.33 mM) in order to convert to acetate or ethanol concentrations.

ALDH2 [4] = target: T1, ALDH2 (Mus musculus, UniProt P47738); assay: ALDH2 activity assay in liver extracts of treated animals; assay type: biochemical, mice; conditions: 24 hours after 600 mg/kg body weight disulfiram, versus control animals
T1 construct: animals were killed and their livers rapidly excised, freeze-clamped and stored at - 80°C before homogenization and enzyme assay; from tissue; host or cells: Triton X-100 extract of freeze-clamped mouse liver
T1 sequence (P47738 20-519): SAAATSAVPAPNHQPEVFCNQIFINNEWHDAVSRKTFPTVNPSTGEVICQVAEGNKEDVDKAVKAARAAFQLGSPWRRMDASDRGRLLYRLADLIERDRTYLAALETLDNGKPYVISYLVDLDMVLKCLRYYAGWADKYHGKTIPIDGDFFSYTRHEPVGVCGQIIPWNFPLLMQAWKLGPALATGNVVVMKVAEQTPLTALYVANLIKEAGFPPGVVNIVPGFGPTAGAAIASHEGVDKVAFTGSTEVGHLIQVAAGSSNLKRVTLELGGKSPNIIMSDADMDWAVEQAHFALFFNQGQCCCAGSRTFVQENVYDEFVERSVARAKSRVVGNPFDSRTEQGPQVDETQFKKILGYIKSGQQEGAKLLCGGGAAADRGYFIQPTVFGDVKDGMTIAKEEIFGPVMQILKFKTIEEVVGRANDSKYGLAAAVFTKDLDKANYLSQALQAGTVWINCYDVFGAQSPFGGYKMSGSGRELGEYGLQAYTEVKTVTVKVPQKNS
Method: Animals were given 100 mg/kg or 600 mg/kg body weight of disulfiram as a suspension in 5% w/v of gum arabicum, by oral gavage (Spielman, D.M., Mayer, D., Yen, Y.F., Tropp, J., Hurd, R.E., Pfefferbaum, A., "In vivo measurement of ethanol metabolism in the rat liver using magnetic resonance spectroscopy of hyperpolarised [1-13C]pyruvate.", Magn.Reson.Med. 2009; 62: 307-313). ^13C MRS experiments were performed approximately 24 hours after drug administration. In some experiments, shortly after completion of MRS measurements, animals were killed and their livers rapidly excised, freeze-clamped and stored at - 80°C before homogenization and enzyme assay.
Liver Tissue Extraction: Freeze-clamped livers were homogenized using a manual Potter S homogenizer (Sartorius, Epsom, UK) in 7 volumes (mL per gram wet weight of liver) of ice-cold extraction buffer (50 mM Tris-HCl, pH 7.4 containing 0.25 M sucrose, 0.1 % v/v 2-mercaptoethanol, 1 mM EDTA and protease inhibitor cocktail (Roche)). Ten strokes of 5 seconds (each followed by a 5 second pause) at 1000 r.p.m. were used. […]
ALDH2 activity assay: The assay mixture containing 0.5 mM NAD^+, 0.1 % v/v of 2-mercaptoethanol, 200 mM KCl in 100 mM sodium pyrophosphate buffer, pH 9.0. […] The formation of NADH was measured for 5 minutes after substrate addition as an increase in absorbance at 340 nm using a Tecan Sunrise 96 well plate reader. […]

ALDH2 [5] = target: T1, ALDH2; assay: In vivo 13C MRS of acetate production from hyperpolarised [1-13C, U-2H5]ethanol in liver after disulfiram treatment; set-up: species or system mice; conditions: approximately 24 hours before MRS
From the text: All animal experiments were approved by local ethical review committees and performed in accordance with the Animals (Scientific Procedures) Act of 1986. Female CD1 mice (6-8 weeks old) were used in all experiments. Animals were anaesthetized using 3 % isoflurane vapor (Isoflo, Abbotts Laboratories Ltd, Maidenhead, UK) in an oxygen/air mixture. Anesthesia was maintained during the MR experiments with 1-2 % isoflurane vapor in an oxygen/air mixture delivered via a face mask.
In vivo NMR spectroscopy: A catheter was inserted in a tail vein and the mouse placed in a heated cradle. Throughout the experiment animal breathing rate and core body temperature were monitored using a Biotrig physiological monitor (Small Animal Instruments, Stony Brook, NY), which were within the range of 60-100 bpm and 36-37°C, respectively. A 20 mm diameter surface coil (Rapid Biomedical GmbH, Rimpar, Germany) was placed over the liver and the entire assembly placed in a ^13C/^1H volume coil (Rapid Biomedicals, Germany), in a 7T horizontal bore magnet (Varian, Palo Alto, CA). Livers were localized in transverse ^1H images, acquired using a spin-echo pulse sequence (TR, 1.5 s; echo time (TE), 10 ms; field of view, 40 mm x 40 mm; data matrix, 128 x 128; slice thickness, 2 mm; 15 slices). […] All data were phase and baseline corrected and the signal integrals for ethanol and acetate measured. […]

^13C T1 [1]: 56 s
polarization buildup time constant of dynamic nuclear polarization ([2]; 3.35 T Hypersense polarizer, n=3): 41.2 ± 5.5 min
T1 calculated from the decay of the polarization ([2]; hyperpolarised sample in PBS, 9.4 T, 37°C, SD, n=3): 53.7 ± 3.2 s
liquid state polarization ([2]; measured approximately 9 seconds after dissolution): 14.1 ± 3.3%
SMILES: [2H]C([2H])([2H])[13C]([2H])([2H])O [[1-^13C, U-^2H5]ethanol]

[1-^13C] acetate concentration in plasma ([3]; plasma withdrawn 75 seconds after start of ethanol injection, SD, n=3): 0.93 ± 0.29 mM
ethanol concentration in plasma ([3]; SD, n=3): 1.73 ± 0.48 mM
SMILES: [13CH3]CO [[2-^13C] ethanol]

decrease of ALDH2 activity in liver extracts (ALDH2 [4]): 68%
decrease of the maximum acetate signal (normalized to the maximum ethanol signal) (ALDH2 [5]; disulfiram 100 mg/kg by oral gavage, n=1): approximately 43%
decrease of the maximum acetate signal (normalized to the maximum ethanol signal) (ALDH2 [5]; disulfiram 600 mg/kg body weight by oral gavage, SD, n=3): 79 ± 8% and ~79%
SMILES: CCN(CC)C(=S)SSC(=S)N(CC)CC [disulfiram]

expected ethanol concentration at equilibrium ([3]; calculated for 10 µl per g body weight of 110 mM ethanol, assuming water is approximately 74% of body weight): approximately 1.5 mM
ethanol concentration in plasma ([3]; SD, n=3): 1.73 mM
^13C T1 [1]: 9.9 s
SMILES: CCO [ethanol]

From patent publication EP2891500B1, “Contrast agent for determination of aldehyde dehydrogenase (ALDH) activity” (Cambridge Enterprise Limited, priority 2014, dated 2015)
